Source: ChEMBL document CHEMBL1201862, “PubChem BioAssay data set” (2004)
Where “and” joins values, the source holds several entries; their conditions need not be identical. Equal values may be shown once.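 96-well plates; 48 h exposure; 5 concentrations. Endpoints by linear interpolation between flanking doses. Not reached: highest tested concentration assigned. GI50: concentration for 50% inhibition of growth.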 Calls of active or inactive are those of the source. No stated cut-off is given here; in the data, active = GI50 up to about 1.1 µM and inactive = higher.

Key:
Experiment in all cases: growth of human tumour cells (NCI), 48 h
[1] = system: MDA-MB-231
[2] = system: T47D
[3] = system: BT-549
[4] = system: NCI/ADR-RES
[5] = system: DMS-273
[6] = system: SNB-78
[7] = system: HOP-18
[8] = system: DLD-1

Row | SMILES | GI50 [1] | GI50 [2] | GI50 [3] | GI50 [4] | GI50 [5] | GI50 [6] | GI50 [7] | GI50 [8]
1 | CCOC(=O)c1nc2cc(C(F)(F)F)ccc2nc1Nc1ccc(F)cc1 | > 100 µM (inactive) | > 100 µM (inactive) | 25.9 µM (inactive) | 72.1 µM (inactive) | – | – | – | –
2 | Cc1cc(C)c2c(c1)CN1CN2Cc2cc(C)cc(C)c21 | – | – | – | – | 18.9 µM (inactive) | 17.5 µM (inactive) | 36.4 µM (inactive) | 24.7 µM (inactive)
3 | CC(C)/C(Cl)=N\OC(=O)Nc1cccc(Cl)c1 | 15.2 µM (inactive) | 26.8 µM (inactive) | – | 10.6 µM (inactive) | – | – | – | –
4 | CC1=NC(=N)N=C(C)C1/N=N/c1ccc2[nH]c(C)nc2c1 (configuration not stated) | > 100 µM (inactive) | > 100 µM (inactive) | > 100 µM (inactive) | > 100 µM (inactive) | – | – | – | –
5 | c1csc(-c2sc(-c3ccsc3)cc2Cc2ccsc2)c1 | > 10 µM (inactive) | > 10 µM (inactive) | – | – | – | – | – | –
6 | O=C(/C=C1\Nc2ccc([N+](=O)[O-])cc2N=C1NC12CC3CC(CC(C3)C1)C2)c1ccccc1 | 4.7 µM (inactive) | > 10 µM (inactive) | – | > 10 µM (inactive) | – | – | – | –
7 | COc1ccc(CC(C#N)c2cc(OC)c(OC)c(OC)c2)cc1 (configuration not stated) | 0.0561 µM (active) | – | 11.9 µM (inactive) | 0.0185 µM (active) | 0.0303 µM (active) | 0.227 µM (active) | – | 0.11 µM (active)
8 | Oc1cccc(C2SCc3nc4ccccc4n32)c1 (configuration not stated) | – | – | – | – | 47.1 µM (inactive) | > 100 µM (inactive) | 0.42 µM (active) | 44.3 µM (inactive)
9 | O=c1[nH]nc(Cc2ccccc2)n1O | > 100 µM (inactive) | > 100 µM (inactive) | > 100 µM (inactive) | > 100 µM (inactive) | – | – | – | –
10 | COC(=O)[C@@H]1CC(C(C[N+](=O)[O-])c2ccc(O[Si](C)(C)C(C)(C)C)cc2)C(=O)N1C(=O)OC(C)(C)C (some centres not stated) | > 100 µM (inactive) | 22.1 µM (inactive) and 32.5 µM (inactive) | – | – | – | – | – | –
11 | COc1ccc(C(=O)/C=C/c2ccc(OCCSCCCCCCCCCCSCCOc3ccc(/C=C/C(=O)c4ccc(OC)c(OC)c4)cc3)cc2)cc1OC | > 100 µM (inactive) | > 100 µM (inactive) | > 100 µM (inactive) | – | – | – | – | –
12 | NC(=O)c1ccc[n+](C2=C([N-]S(=O)(=O)c3ccccc3)C(=O)c3ccccc3C2=O)c1 | 18.1 µM (inactive) | 22.6 µM (inactive) | 14.8 µM (inactive) | 15.8 µM (inactive) | – | – | – | –
13 | O=C(NN=C1CCN(Cc2ccccc2)CC1)C(O)(c1ccccc1)c1ccccc1 | > 100 µM (inactive) | > 100 µM (inactive) | – | > 100 µM (inactive) | – | – | – | –
14 | CC(=O)c1cccc(C)c1C(=O)O | – | – | – | – | > 100 µM (inactive) | 95.5 µM (inactive) | > 100 µM (inactive) | > 100 µM (inactive)
15 | NC(=O)c1cn(Cc2ccccc2)c(=O)n1Cc1ccccc1 | – | – | – | – | > 100 µM (inactive) | > 100 µM (inactive) | > 100 µM (inactive) | > 100 µM (inactive)
16 | O=C1/C(=C/c2ccccc2)CN(C(=O)Oc2ccccc2)C/C1=C\c1ccccc1 | – | – | – | – | 23.1 µM (inactive) | 20.4 µM (inactive) | > 100 µM (inactive) | –
17 | CCCCCCCCCCCCCCCCOCC(Cl)CP(=O)(O)OP(=O)(O)OCC1OC(n2cnc3c(N)ncnc32)C(O)C1O (configuration not stated) | > 100 µM (inactive) | > 100 µM (inactive) | > 100 µM (inactive) | > 100 µM (inactive) | – | – | – | –
18 | CC1CC/C(=C\c2ccc(F)cc2)C2=C1C(c1ccc(F)cc1)NC(=S)N2 (configuration not stated) | 47.8 µM (inactive) | 12.9 µM (inactive) | 35.1 µM (inactive) | 53.6 µM (inactive) | – | – | – | –
19 | CN(C)CCNCCN | > 100 µM (inactive) | > 100 µM (inactive) | > 100 µM (inactive) | > 100 µM (inactive) | – | – | – | –
20 | Cc1cc2nc(C=C(C(F)(F)F)C(F)(F)F)sc2cc1C | 2.82 µM (inactive) | 0.142 µM (active) | 0.855 µM (active) | 0.55 µM (active) | – | – | – | –
21 | OCc1cc2c([nH]c3ccccc32)c(C(O)CO)n1 (configuration not stated) | > 100 µM (inactive) | > 100 µM (inactive) | > 100 µM (inactive) | > 100 µM (inactive) | – | – | – | –
22 | O=C(CCC(=O)Nc1cccc(Cl)c1)CC(=O)c1ccc(F)cc1 | – | – | – | – | > 100 µM (inactive) | > 100 µM (inactive) | – | > 100 µM (inactive)
23 | COC(=O)C(=O)C(C(=O)C(=O)Nc1cccc(OC)c1)c1nc2ccc(Cl)cc2nc1O (configuration not stated) | > 100 µM (inactive) | > 100 µM (inactive) | > 100 µM (inactive) | > 100 µM (inactive) | – | – | – | –
24 | O=C1Cc2ccccc2N1/N=C\c1ccc([N+](=O)[O-])cc1 | – | – | – | – | > 100 µM (inactive) | > 100 µM (inactive) | > 100 µM (inactive) | > 100 µM (inactive)
25 | Cn1c(=O)c2c(nc(C[N+]3([O-])CCOCC3)n2C)n(C)c1=O | – | – | – | – | > 100 µM (inactive) | – | – | > 100 µM (inactive)
26 | CCOC(C)OCC#CCCBr (configuration not stated) | – | – | – | – | > 100 µM (inactive) | > 100 µM (inactive) | > 100 µM (inactive) | > 100 µM (inactive)
27 | Cc1ccc(-c2cs/c(=N\c3ccccc3)n2NC(=O)c2ccncc2)cc1 | 51.5 µM (inactive) | 24.5 µM (inactive) | 30.8 µM (inactive) | 28.3 µM (inactive) | – | – | – | –
28 | CCOC(=O)c1cc2c3ccn(Cc4ccccc4)c3c3c(C)noc3c2[nH]1 | > 100 µM (inactive) | > 100 µM (inactive) | > 100 µM (inactive) | > 100 µM (inactive) | – | – | – | –
